Test results: patent publication US20080275058A1, “N-Substituted-1H-Quinoline-2,4-Diones, Preparation Method Thereof, And Pharmaceutical Composition Containing The Same” (KOREA RESEARCH INSTITUTE OF CHEMICAL TECHNOLOGY, priority 2005, published 2008)
Like-named read-outs stand apart in the source and are kept apart here.

Assays:
[1] = molecular target: T1, hD2L (Homo sapiens, UniProt P14416); assay: Radioligand binding, dopamine D2 ([3H]spiperone); details: Table 4; [3H]spiperone 1 nM; read-out: Binding affinity, IC50 (nM) D2
T1 construct: purchased BioSignal Packard Inc., Montreal, Canada
T1 sequence (P14416 whole entry): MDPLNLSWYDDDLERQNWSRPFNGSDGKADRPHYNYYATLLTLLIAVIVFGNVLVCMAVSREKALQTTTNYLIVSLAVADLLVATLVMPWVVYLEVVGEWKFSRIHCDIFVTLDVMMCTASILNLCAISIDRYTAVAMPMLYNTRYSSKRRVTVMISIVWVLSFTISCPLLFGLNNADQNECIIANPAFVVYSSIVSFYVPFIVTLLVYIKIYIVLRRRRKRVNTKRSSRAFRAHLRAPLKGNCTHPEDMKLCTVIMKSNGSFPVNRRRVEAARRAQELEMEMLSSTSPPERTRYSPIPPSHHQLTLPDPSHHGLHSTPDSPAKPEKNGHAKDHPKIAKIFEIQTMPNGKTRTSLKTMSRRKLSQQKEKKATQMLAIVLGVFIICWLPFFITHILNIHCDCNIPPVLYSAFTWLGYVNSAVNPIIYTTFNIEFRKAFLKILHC
Experimental: (§1) 2-2: Binding assays of Dopamine Receptor Family
(§2) The radioligands used were [^3H] spiperone (for hD2L and hD3 receptors, 1 nM) and [^3H] YM-09151-2 (for hD4.2 receptor, 0.06 nM). Radioligand bindings were performed by the protocols provided by the supplier of receptor membranes (BioSignal Packard Inc., Montreal, Canada). Briefly, the buffer used in D2 or D3 receptor binding assay was 50 mM Tris-HCl (pH 7.4), 10 mM MgCl2, 1 mM EDTA, or 50 mM Tris-HCl (pH 7.4), 5 mM MgCl2, 5 mM EDTA, 5 mM KCl, 1.5 mM CaCl2, 120 mM NaCl, respectively. In [^3H] YM-09151-2 receptor binding assays, the buffer containing 50 mM Tris-HCl (pH 7.4), 5 mM MgCl2, 5 mM EDTA, 5 mM KCl and 1.5 mM CaCl2 was used. […] Competition binding studies were carried out with 7-8 concentrations of the test compound run in duplicate tubes, and isotherms from three assays were calculated by computerized nonlinear regression analysis (GraphPad Prism Program, San Diego, […]) to yield median inhibitory concentration (IC50) values.

[2] = molecular target: T2, 5-HT2a (Homo sapiens, UniProt P28223); assay: Radioligand binding, 5-HT2a ([3H]Ketanserin); details: Table 4; [3H]Ketanserin 1 nM; read-out: Binding affinity, IC50 (nM) 5-HT2a
T2 construct: purchased Euroscreen/BioSignal Packard Inc
T2 sequence (P28223 whole entry): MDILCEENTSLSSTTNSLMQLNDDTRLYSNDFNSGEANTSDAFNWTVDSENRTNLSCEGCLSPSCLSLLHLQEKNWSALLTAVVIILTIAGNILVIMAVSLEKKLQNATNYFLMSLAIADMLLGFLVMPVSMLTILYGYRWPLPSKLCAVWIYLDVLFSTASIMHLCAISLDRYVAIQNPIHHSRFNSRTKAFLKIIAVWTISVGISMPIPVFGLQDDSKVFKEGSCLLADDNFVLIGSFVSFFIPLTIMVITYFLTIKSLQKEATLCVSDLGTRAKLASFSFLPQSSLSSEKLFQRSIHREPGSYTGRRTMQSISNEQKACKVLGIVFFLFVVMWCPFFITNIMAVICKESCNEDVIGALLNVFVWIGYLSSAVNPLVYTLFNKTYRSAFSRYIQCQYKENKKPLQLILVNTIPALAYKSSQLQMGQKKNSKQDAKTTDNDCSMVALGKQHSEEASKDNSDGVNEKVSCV

[3] = molecular target: T3, 5-HT2c (Homo sapiens, UniProt P28335); assay: Radioligand binding, 5-HT2c ([3H]Mesulergine); details: Table 4; [3H]Mesulergine 1 nM; read-out: Binding affinity, IC50 (nM) 5-HT2c
T3 construct: purchased Euroscreen/BioSignal Packard Inc
T3 sequence (P28335 33-458): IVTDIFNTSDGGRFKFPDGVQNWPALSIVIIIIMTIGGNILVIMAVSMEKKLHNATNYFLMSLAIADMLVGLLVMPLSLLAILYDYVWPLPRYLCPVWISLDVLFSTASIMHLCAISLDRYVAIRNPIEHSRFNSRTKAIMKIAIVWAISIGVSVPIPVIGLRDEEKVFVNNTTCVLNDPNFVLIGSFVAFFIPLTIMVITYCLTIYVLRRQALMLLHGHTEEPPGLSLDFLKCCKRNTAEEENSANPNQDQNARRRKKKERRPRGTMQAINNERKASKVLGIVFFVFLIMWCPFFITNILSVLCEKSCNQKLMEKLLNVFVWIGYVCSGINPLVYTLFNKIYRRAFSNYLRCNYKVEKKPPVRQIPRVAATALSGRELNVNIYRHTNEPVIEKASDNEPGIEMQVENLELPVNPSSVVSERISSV

[4] = molecular target: D1 (Homo sapiens, UniProt P21728); assay: Radioligand binding, dopamine D1; details: Table 4; read-out: Binding affinity, IC50 (nM) D1
D1, sequence (P21728 whole entry): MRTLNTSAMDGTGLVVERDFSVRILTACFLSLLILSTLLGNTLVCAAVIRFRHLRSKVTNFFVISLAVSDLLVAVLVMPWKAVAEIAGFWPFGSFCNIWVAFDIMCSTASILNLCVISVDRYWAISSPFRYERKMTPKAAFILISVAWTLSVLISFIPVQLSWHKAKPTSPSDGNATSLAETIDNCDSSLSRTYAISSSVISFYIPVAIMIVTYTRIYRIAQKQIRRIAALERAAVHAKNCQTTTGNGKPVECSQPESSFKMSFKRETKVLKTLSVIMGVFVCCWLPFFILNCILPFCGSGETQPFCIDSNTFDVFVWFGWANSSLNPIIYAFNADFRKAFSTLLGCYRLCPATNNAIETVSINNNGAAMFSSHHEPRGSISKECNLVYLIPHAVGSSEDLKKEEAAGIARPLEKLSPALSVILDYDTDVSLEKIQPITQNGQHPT

[5] = molecular target: T4, 5-HT1a (Homo sapiens, UniProt P08908); assay: Radioligand binding, 5-HT1a ([3H]8-OH-DPAT); details: Table 4; [3H]8-OH-DPAT 0.5 nM; read-out: Binding affinity, IC50 (nM) 5-HT1a
T4 construct: purchased Euroscreen/BioSignal Packard Inc
T4 sequence (P08908 1-422): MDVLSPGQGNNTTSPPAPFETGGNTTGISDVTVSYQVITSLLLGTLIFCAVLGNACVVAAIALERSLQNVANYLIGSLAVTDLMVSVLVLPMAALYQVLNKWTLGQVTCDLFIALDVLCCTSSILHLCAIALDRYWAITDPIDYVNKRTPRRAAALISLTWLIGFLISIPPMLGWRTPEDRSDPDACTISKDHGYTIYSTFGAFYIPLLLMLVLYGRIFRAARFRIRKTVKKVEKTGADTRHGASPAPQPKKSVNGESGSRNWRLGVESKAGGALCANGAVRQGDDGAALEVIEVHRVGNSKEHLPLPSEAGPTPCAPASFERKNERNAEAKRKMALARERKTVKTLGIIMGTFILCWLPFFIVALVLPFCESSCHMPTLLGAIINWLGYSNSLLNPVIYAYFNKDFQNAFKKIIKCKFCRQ
Experimental: Radioligand bindings were performed according to the test method provided by the supplier of receptor membrane (Euroscreen/BioSignal Packard Inc.). The detailed assay conditions and the results were shown in the following Table 3 and Table 4, respectively.

[6] = molecular target: T5, hD3 (Homo sapiens, UniProt P35462); assay: Radioligand binding, dopamine D3 ([3H]spiperone); details: Table 4; [3H]spiperone 1 nM; read-out: Binding affinity, IC50 (nM) D3
T5 construct: purchased BioSignal Packard Inc., Montreal, Canada
T5 sequence (P35462 whole entry): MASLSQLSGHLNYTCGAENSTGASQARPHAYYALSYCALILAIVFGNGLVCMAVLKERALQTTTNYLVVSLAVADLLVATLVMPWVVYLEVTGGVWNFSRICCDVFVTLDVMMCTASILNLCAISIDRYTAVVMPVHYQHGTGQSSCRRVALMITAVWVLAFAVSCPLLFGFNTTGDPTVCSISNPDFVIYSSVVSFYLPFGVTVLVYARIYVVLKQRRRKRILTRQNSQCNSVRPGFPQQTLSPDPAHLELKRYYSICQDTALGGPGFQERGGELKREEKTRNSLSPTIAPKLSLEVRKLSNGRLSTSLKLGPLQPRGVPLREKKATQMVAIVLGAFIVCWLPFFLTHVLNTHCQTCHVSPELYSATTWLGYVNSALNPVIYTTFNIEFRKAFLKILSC
Experimental: as §1, §2

[7] = molecular target: T6, Human serotonin 5-HT6 receptor (Homo sapiens, UniProt P50406); assay: [3H]LSD binding assay on cloned 5-HT6 receptor membranes; details: for binding affinity at 5-HT6 receptor labeled by [3H]LSD, in words: comment on Table 2
T6 construct: made in house; host or cells: insect Sf21 cells (baculovirus vector BacPAK8)
T6 sequence (P50406 whole entry): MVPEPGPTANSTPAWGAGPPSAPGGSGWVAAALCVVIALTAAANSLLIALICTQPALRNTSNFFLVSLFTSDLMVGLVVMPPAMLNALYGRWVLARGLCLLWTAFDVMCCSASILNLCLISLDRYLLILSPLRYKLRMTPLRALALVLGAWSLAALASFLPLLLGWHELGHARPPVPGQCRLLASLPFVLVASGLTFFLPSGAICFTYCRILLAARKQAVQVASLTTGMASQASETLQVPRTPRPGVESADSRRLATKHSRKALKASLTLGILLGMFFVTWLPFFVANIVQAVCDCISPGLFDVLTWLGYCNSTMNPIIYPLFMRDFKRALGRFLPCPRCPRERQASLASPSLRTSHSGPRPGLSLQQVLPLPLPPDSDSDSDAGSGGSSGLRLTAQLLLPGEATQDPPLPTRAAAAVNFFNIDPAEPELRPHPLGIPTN

[8] = molecular target: T7, 5-HT7 (Homo sapiens, UniProt P34969); assay: Radioligand binding, 5-HT7 ([3H]LSD); details: Table 4; [3H]LSD 3 nM; read-out: Binding affinity, IC50 (nM) 5-HT7
T7 construct: purchased Euroscreen/BioSignal Packard Inc
T7 sequence (P34969 whole entry): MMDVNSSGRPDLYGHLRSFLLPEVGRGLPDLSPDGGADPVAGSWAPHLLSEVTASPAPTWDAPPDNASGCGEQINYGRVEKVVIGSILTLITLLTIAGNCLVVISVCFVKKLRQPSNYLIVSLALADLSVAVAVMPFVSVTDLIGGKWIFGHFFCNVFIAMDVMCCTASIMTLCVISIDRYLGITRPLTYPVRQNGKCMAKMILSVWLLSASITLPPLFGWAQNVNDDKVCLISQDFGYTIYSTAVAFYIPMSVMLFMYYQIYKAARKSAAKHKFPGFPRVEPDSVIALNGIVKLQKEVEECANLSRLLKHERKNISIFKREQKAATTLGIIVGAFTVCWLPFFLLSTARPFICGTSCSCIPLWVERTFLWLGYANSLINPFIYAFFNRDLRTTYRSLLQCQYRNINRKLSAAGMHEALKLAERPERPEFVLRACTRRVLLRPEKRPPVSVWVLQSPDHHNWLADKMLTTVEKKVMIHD

[9] = molecular target: T8, hD4.2 receptor (Homo sapiens, UniProt P21917, DEL265-296); assay: Radioligand binding, dopamine D4 ([3H]YM-09151-2); details: Table 4; [3H]YM-09151-2 0.06 nM; read-out: Binding affinity, IC50 (nM) D4
T8 construct: purchased BioSignal Packard Inc., Montreal, Canada
T8 sequence (P21917 with tags, fused parts or gaps DEL265-296): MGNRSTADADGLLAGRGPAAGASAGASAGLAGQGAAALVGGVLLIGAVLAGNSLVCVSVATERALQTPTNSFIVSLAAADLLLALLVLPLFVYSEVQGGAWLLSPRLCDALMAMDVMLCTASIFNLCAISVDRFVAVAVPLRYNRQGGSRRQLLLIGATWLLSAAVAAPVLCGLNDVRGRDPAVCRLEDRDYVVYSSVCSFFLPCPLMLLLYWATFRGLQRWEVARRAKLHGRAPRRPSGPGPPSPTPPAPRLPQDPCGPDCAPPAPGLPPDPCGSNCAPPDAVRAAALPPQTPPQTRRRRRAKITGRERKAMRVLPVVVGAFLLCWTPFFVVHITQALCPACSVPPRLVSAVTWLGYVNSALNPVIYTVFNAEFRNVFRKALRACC
Experimental: as §1, §2

[10] = Table 2, 1.87 nM [3H]LSD, 37 C, 60 min, read-out: IC50 (nM), binding affinity to the 5-HT6 receptor
[11] = Table 4, read-out: Binding affinity, IC50 (nM) 5-HT6

CC1(c2cccc(O)c2)C(=O)c2c(N3CCNCC3)cc(Cl)cc2N(Cc2ccccc2)C1=O (stereo not shown) [Example 51, 1-Benzyl-7-chloro-3-(3-hydroxy-phenyl)-3-methyl-5-piperazin-1-yl-1H-quinoline-2,4-dione]
melting point: 238 to 240 °C
IC50 [1]: 8650 nM
IC50 [2]: 7550 nM
IC50 [3]: 8740 nM
IC50 [4]: 6390 nM
IC50 [5]: 8450 nM
IC50 [6]: 9880 nM
IC50 [7, 10]: 6.2 nM
IC50 [7, 11]: 20.7 nM
IC50 [8]: 7580 nM
IC50 [9]: 9460 nM

CC1(c2ccc(O)cc2)C(=O)c2c(N3CCNCC3)cc(Cl)cc2N(Cc2ccc(-c3ccccc3)cc2)C1=O (stereo not shown) [Example 42, 1-Biphenyl-4-ylmethyl-7-chloro-3-(4-hydroxy-phenyl)-3-methyl-5-piperazin-1-yl-1H-quinoline-2,4-dione]
melting point: 240 to 241 °C
IC50 [1]: 6850 nM
IC50 [2]: 8190 nM
IC50 [3]: 7600 nM
IC50 [4]: 6120 nM
IC50 [5]: 6640 nM
IC50 [6]: 9210 nM
IC50 [7, 10]: 164 nM
IC50 [7, 11]: 16.1 nM
IC50 [8]: 6730 nM
IC50 [9]: 9410 nM

COc1ccc(CN2C(=O)C(C)(c3ccc(OC)cc3)C(=O)c3c(N4CCNCC4)cc(Cl)cc32)cc1 (stereo not shown) [Example 31, 7-Chloro-1-(4-methoxy-benzyl)-3-(4-methoxy-phenyl)-3-methyl-5-piperazin-1-yl-1H-quinoline-2,4-dione]
melting point: 182 to 183 °C
IC50 [1]: 6430 nM
IC50 [2]: 8340 nM
IC50 [3]: 7950 nM
IC50 [4]: 7550 nM
IC50 [5]: 6950 nM
IC50 [6]: 8950 nM
IC50 [7, 10]: 26.5 nM
IC50 [7, 11]: 21.3 nM
IC50 [8]: 8440 nM
IC50 [9]: 8710 nM

CC1(c2ccc(O)cc2)C(=O)c2c(N3CCNCC3)cc(Cl)cc2N(Cc2ccc3ccccc3n2)C1=O (stereo not shown) [Example 45, 7-Chloro-3-(4-hydroxy-phenyl)-3-methyl-5-piperazin-1-yl-1-quinolin-2-ylmethyl-1H-quinoline-2,4-dione]
melting point: 278 to 279 °C
IC50 [1]: 7680 nM
IC50 [2]: > 10000 nM
IC50 [3]: > 1000 nM
IC50 [4]: 8410 nM
IC50 [5]: > 10000 nM
IC50 [6]: 9160 nM
IC50 [7, 10]: 11.4 nM
IC50 [7, 11]: 16.4 nM
IC50 [8]: 9450 nM
IC50 [9]: 8510 nM

CCN1C(=O)C(C)(c2ccc(OC)cc2)C(=O)c2c(N3CCNCC3)cc(Cl)cc21 (stereo not shown) [Example 46, 7-Chloro-1-ethyl-3-(4-methoxy-phenyl)-3-methyl-5-piperazin-1-yl-1H-quinoline-2,4-dione]
melting point: 127 to 129 °C
IC50 [1]: 8570 nM
IC50 [2]: 6360 nM
IC50 [3]: 9110 nM
IC50 [4]: 7890 nM
IC50 [5]: 6700 nM
IC50 [6]: 9410 nM
IC50 [7, 10]: 49.1 nM
IC50 [7, 11]: 15.8 nM
IC50 [8]: 7950 nM
IC50 [9]: 9570 nM

CC1(c2ccc([N+](=O)[O-])cc2)C(=O)c2c(N3CCNCC3)cc(Cl)cc2N(Cc2ccccc2)C1=O (stereo not shown) [Example 15, 1-Benzyl-7-chloro-3-methyl-3-(4-nitro-phenyl)-5-piperazin-1-yl-1H-quinoline-2,4-dione]
melting point: 145 to 146 °C
IC50 [1]: 6660 nM
IC50 [2]: 8120 nM
IC50 [3]: 9950 nM
IC50 [4]: 5810 nM
IC50 [5]: 6350 nM
IC50 [6]: 9740 nM
IC50 [7, 10]: 12.1 nM
IC50 [7, 11]: 15.2 nM
IC50 [8]: 9510 nM
IC50 [9]: 9460 nM

CC1(c2ccc(O)cc2)C(=O)c2c(N3CCNCC3)cc(Cl)cc2N(Cc2ccc(O)cc2)C1=O (stereo not shown) [Example 32, 7-Chloro-1-(4-hydroxy-benzyl)-3-(4-hydroxy-phenyl)-3-methyl-5-piperazin-1-yl-1H-quinoline-2,4-dione]
melting point: 241 to 242 °C
IC50 [1]: 6960 nM
IC50 [2]: 7450 nM
IC50 [3]: 7890 nM
IC50 [4]: 9010 nM
IC50 [5]: 6580 nM
IC50 [6]: 9110 nM
IC50 [7, 10]: 1.7 nM
IC50 [7, 11]: 15.2 nM
binding affinity at 5-HT6 receptor labeled by [3H]LSD, in words [7]: significant affinities
IC50 [8]: 8310 nM
IC50 [9]: 9450 nM

CC1(c2ccc(Br)cc2)C(=O)c2c(N3CCNCC3)cc(Cl)cc2N(Cc2ccccc2)C1=O (stereo not shown) [Example 20, 1-Benzyl-3-(4-bromo-phenyl)-7-chloro-3-methyl-5-piperazin-1-yl-1H-quinoline-2,4-dione]
melting point: 116 to 117 °C
IC50 [1]: 8250 nM
IC50 [2]: 5700 nM
IC50 [3]: > 10000 nM
IC50 [4]: 8540 nM
IC50 [5]: 6360 nM
IC50 [6]: 9380 nM
IC50 [7, 10]: 1.9 nM
IC50 [7, 11]: 18.2 nM
binding affinity at 5-HT6 receptor labeled by [3H]LSD, in words [7]: significant affinities
IC50 [8]: 6840 nM
IC50 [9]: 8990 nM

COc1ccc(C2(C)C(=O)c3c(N4CCNCC4)cc(Cl)cc3N(Cc3cccnc3)C2=O)cc1 (stereo not shown) [Example 37, 7-Chloro-3-(4-methoxy-phenyl)-3-methyl-5-piperazin-1-yl-1-pyridin-3-ylmethyl-1H-quinoline-2,4-dione]
melting point: 160 to 162 °C
IC50 [1]: 8050 nM
IC50 [2]: 6020 nM
IC50 [3]: 8050 nM
IC50 [4]: 7680 nM
IC50 [5]: 9060 nM
IC50 [6]: > 10000 nM
IC50 [7, 10]: 21.4 nM
IC50 [7, 11]: 19.8 nM
IC50 [8]: 5990 nM
IC50 [9]: 9380 nM

CCN(CC)c1ccc(C2(C)C(=O)c3c(N4CCN(C)CC4)cc(Cl)cc3N(Cc3ccccc3)C2=O)cc1 (stereo not shown) [Example 5, 1-Benzyl-7-chloro-3-(4-diethylamino-phenyl)-3-methyl-5-(4-methyl-piperazin-1-yl)-1H-quinoline-2,4-dione]
melting point: 204 to 206 °C
IC50 [1]: 7050 nM
IC50 [2]: 7540 nM
IC50 [3]: 4660 nM
IC50 [4]: 7700 nM
IC50 [5]: 6450 nM
IC50 [6]: 7080 nM
IC50 [7, 10]: 37.8 nM
IC50 [7, 11]: 16.8 nM
IC50 [8]: 7620 nM
IC50 [9]: 8750 nM
